According to article PMC5835321 (Cancer research, 2017):

Target: T1, PPARG (PPAR-gamma) (Homo sapiens, UniProt P37231)
T1 sequence (P37231 231-505 limits assumed): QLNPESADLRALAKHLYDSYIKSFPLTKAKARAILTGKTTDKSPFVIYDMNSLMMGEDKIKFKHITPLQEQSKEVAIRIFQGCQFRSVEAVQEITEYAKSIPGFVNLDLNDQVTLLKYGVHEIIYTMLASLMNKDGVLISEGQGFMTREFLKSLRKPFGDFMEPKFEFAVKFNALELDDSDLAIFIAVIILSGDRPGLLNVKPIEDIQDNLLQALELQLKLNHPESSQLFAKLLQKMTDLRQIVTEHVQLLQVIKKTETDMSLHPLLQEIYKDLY

CN(CCOc1ccc(C[C@H](Nc2ccccc2C(=O)c2ccccc2)C(=O)O)cc1)c1ccccn1 [GW1929]
TR-FRET coactivator recruitment and corepressor release; full agonist: Full agonists, such as rosiglitazone, tesaglitazar, GW1929, and pioglitazone, enhanced interaction between PPARG and MED1 coactivator peptide
